# Results published in patent publication US9617267B2, “Compounds and methods for kinase modulation, and indications therefor” (Plexxikon Inc., priority 2009, dated 2017).
# Where two headings read alike, the source gives them in different places.
# Columns and labels:
# B-Raf V600E = B-Raf V600E (Homo sapiens (Human), UniProt P15056, V600E); test: B-Raf V600E kinase activity biochemical assay (AlphaScreen, biotin-MEK1 phosphorylation); details: for IC50: B-Raf V600E; for Biochemical activity ratio V600E/C: ratio of IC50 B-Raf V600E / c-Raf-1
# Sequence of B-Raf V600E (P15056 whole entry V600E): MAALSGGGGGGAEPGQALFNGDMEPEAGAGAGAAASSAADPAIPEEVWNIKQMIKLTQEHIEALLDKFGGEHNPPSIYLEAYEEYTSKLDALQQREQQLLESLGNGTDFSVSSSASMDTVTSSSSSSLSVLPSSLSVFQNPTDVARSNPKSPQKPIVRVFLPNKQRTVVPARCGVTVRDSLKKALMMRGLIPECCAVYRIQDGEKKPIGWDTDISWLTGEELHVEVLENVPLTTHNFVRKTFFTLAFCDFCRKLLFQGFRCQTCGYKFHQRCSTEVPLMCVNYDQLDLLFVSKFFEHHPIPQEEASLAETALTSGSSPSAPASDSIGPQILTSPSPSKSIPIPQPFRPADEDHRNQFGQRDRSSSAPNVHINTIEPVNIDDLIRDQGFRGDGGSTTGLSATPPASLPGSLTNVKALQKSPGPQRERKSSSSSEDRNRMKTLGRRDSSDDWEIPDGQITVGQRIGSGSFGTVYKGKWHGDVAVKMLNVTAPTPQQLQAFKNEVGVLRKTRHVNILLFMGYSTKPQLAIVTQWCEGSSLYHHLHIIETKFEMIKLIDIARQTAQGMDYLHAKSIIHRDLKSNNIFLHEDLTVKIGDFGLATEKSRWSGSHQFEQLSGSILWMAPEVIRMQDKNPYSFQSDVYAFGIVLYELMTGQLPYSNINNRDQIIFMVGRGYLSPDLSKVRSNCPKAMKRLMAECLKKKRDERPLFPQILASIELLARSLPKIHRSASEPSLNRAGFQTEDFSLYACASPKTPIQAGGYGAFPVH
# Protocol: (§1) Compounds to be tested are diluted in dimethyl sulfoxide to a concentration of 0.1 mM. These are serially diluted 15 μL into 30 μL of dimethyl sulfoxide seven times in 96 well plates for a total of 8 dilution points, and for each dilution point 1 μL is added to a well of an assay plate. […] The reaction is started with addition of 10 μL of 200 μM ATP (i.e. final 100 μM ATP). After incubation of the kinase reaction for 45 minutes at room temperature, 5 μL/well of Stop Solution is added (25 mM Hepes pH 7.5, 100 mM EDTA, 0.01% BSA with donor beads (Streptavidin coated beads, Perkin Elmer), acceptor beads (Protein A coated, Perkin Elmer), and anti phosphor MEK1/2 antibody (CellSignal), each at final concentration 10 μg/mL). The plates are incubated for 3 hours at room temperature and read on Envision reader (Perkin Elmer). […] The signal vs. compound concentration is used to determine the IC50.
# c-Raf-1 = c-Raf-1 (Homo sapiens, UniProt P04049); test: c-Raf-1 kinase activity biochemical assay (AlphaScreen, biotin-MEK1 phosphorylation)
# Sequence of c-Raf-1 (P04049 whole entry, looked up): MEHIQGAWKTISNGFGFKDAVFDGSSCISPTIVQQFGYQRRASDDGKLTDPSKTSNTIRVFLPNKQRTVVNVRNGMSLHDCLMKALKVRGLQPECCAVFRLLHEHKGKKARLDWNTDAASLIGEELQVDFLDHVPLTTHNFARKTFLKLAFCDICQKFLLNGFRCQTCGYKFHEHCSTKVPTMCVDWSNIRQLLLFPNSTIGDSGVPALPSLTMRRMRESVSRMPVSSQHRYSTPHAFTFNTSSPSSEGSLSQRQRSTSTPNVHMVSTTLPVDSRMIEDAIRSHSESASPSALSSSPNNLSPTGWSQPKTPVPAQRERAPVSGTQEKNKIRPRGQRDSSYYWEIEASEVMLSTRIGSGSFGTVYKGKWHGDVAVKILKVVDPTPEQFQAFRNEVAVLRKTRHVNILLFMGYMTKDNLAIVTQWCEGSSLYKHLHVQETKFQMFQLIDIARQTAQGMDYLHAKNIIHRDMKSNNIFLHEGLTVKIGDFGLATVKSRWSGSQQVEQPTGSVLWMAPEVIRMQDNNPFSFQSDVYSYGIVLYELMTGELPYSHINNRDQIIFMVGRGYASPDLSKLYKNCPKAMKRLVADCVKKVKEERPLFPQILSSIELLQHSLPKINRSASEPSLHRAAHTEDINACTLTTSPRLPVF
# Protocol: as §1
# CYP2C9 = CYP2C9 (Homo sapiens (Human), UniProt P11712); test: CYP enzyme inhibition, fluorescent substrate (MFC); details: read-out: Cyp IC50 2C9; CYP2C9, substrate MFC
# Sequence of CYP2C9 (P11712 whole entry): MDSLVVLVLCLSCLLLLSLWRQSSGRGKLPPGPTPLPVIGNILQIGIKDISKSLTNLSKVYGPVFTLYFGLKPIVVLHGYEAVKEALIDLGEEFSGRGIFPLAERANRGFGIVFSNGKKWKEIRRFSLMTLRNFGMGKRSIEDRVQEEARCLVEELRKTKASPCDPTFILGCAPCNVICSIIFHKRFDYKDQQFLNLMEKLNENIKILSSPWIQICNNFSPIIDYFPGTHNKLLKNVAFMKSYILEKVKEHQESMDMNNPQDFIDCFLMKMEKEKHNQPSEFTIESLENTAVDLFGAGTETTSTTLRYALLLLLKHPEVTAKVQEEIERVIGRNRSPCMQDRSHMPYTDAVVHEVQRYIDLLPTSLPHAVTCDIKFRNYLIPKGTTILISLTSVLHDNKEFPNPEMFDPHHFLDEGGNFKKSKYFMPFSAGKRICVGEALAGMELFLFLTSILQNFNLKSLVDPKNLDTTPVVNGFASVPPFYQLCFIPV
# Protocol: (§2) CYP (Cytochrome P450) enzymes are the major drug metabolizing enzymes present in the liver. The inhibition of CYP enzyme activity (IC50) for each of CYP1A2, CYP2C19, CYP2C9, CYP2D6, CYP3A4(BFC) and CYP3A4(BQ) is determined for compounds, where inhibition of metabolism of a known substrate leads to a decrease in the fluorescence of the metabolized product. The fluorescence of the product is monitored as a function of compound concentration.
# (§3) Compounds are dissolved in dimethyl sulfoxide to a concentration of 100 mM. These are diluted 1 μL into 82 μL of acetonitrile. […] These are then serially diluted 1:1 (160 μL to 160 μL co-factor mix) for a total of 10 points. A 10 μL aliquot of this final mixture is dispensed into 384 well assay plates and incubated for 10 minutes at 37° C. […] Assay plates are incubated at 37° C. […] The signal versus compound concentration is used to determine the IC50. The enzymes and substrates for this assay are obtained from BD Biosciences.
# CYP3A4(BFC) = CYP3A4(BFC) (Homo sapiens (Human), UniProt P08684); test: CYP enzyme inhibition, fluorescent substrate BFC
# Sequence of CYP3A4(BFC) (P08684 whole entry): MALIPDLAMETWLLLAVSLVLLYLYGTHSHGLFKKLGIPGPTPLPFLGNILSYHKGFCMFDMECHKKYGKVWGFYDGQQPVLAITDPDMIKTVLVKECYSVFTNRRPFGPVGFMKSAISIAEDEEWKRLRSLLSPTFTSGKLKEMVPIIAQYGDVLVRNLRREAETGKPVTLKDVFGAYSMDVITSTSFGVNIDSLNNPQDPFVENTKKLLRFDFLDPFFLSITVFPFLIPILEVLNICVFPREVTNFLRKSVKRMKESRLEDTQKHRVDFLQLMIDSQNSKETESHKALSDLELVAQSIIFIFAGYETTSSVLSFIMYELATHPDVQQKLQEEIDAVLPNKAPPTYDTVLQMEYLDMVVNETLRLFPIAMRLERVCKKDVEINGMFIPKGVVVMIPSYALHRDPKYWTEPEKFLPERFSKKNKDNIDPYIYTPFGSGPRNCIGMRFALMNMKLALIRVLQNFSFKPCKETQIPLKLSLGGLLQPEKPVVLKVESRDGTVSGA
# Protocol: as §2, §3
# CYP2D6 = CYP2D6 (Homo sapiens (Human), UniProt P10635); test: CYP enzyme inhibition, fluorescent substrate (AMMC); assay type: in vitro ADME; details: read-out: Cyp IC50 2D6
# Sequence of CYP2D6 (P10635 whole entry): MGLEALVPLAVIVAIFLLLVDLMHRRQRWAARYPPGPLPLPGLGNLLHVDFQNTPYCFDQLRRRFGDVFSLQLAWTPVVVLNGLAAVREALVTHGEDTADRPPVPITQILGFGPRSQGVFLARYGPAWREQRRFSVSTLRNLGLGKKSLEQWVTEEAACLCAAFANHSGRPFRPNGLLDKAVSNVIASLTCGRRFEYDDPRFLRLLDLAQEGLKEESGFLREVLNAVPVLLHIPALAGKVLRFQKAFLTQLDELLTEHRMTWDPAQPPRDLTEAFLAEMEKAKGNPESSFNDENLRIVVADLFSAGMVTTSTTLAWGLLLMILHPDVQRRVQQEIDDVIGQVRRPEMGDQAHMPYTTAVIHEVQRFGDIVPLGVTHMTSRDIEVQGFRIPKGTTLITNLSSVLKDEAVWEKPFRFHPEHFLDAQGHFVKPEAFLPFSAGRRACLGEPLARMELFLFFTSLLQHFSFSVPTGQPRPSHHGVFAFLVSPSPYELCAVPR
# Protocol: as §2
# (§4) Compounds are dissolved in dimethyl sulfoxide to a concentration of 100 mM. These are diluted 1 μL into 82 μL of acetonitrile. An 11 μL aliquot of this solution is then added to 204 μL of cofactor mix (1.3% NADPH Regeneration system Solution A, 1.04% NADPH Regeneration system Solution B from BD Biosciences, 5% acetonitrile and 0.05% dimethyl sulfoxide). These are then serially diluted 1:1 (160 μL to 160 μL co-factor mix) for a total of 10 points. A 10 μL aliquot of this final mixture is dispensed into 384 well assay plates and incubated for 10 minutes at 37° C. Enzyme and substrate mix (10 μL; 0.5 pmol CYP1A2/5 μM CEC; 1.0 pmol CYP2C9/75 μM MFC; 0.5 pmol CYP2C19/25 μM CEC; 1.5 pmol CYP2D6/1.5 μM AMMC; 1.0 pmol CYP3A4/50 μM BFC; or 1.0 pmol CYP3A4/40 μM BQ) is added to these assay plates. Assay plates are incubated at 37° C. (CYP1A2-15 min; CYP2C9-45 min; CYP2C19, 2D6 and 3A4-30 min) and read in a Tecan Safire 2 plate reader (CYP1A2, 2C19 and 3A4 409 ex/460 em; CYP2C9 and 2D6 409 ex/530 em). The signal versus compound concentration is used to determine the IC50. The enzymes and substrates for this assay are obtained from BD Biosciences.
# B-Raf [1] = test: B-Raf kinase activity biochemical assay (AlphaScreen, biotin-MEK1 phosphorylation); details: for Biochemical activity ratio B/V600E: ratio of IC50 B-Raf / B-Raf V600E; for Biochemical activity ratio B/C: ratio of IC50 B-Raf / c-Raf-1
# Protocol: as §1
# B-Raf [2] = molecular target: B-Raf (Homo sapiens (Human), UniProt P15056); test: as above; details: B-Raf
# Sequence of B-Raf (Homo sapiens (Human), UniProt P15056) (P15056 whole entry): as the sequence (P15056 whole entry V600E) above, with E600V counted along it
# Protocol: as §1
# CYP2C19 = CYP2C19 (Homo sapiens (Human), UniProt P33261); test: CYP enzyme inhibition, fluorescent substrate (CEC)
# Sequence of CYP2C19 (P33261 whole entry): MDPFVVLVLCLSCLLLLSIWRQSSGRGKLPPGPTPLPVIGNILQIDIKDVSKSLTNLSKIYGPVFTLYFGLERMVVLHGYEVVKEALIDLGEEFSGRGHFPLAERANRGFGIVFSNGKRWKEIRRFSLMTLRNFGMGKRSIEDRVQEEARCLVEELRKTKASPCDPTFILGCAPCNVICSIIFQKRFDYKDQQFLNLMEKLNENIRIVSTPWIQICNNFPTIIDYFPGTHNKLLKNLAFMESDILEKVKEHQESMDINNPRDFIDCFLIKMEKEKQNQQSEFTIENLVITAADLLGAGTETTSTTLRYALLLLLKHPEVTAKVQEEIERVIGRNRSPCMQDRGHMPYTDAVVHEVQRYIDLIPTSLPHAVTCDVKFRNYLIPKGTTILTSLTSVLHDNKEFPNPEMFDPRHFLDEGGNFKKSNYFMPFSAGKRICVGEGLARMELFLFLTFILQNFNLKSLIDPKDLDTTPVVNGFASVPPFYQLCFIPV
# Protocol: as §2, §3
# CYP1A2 = CYP1A2 (Homo sapiens (Human), UniProt P05177); test: CYP enzyme inhibition, fluorescent substrate (CEC); details: human, 15 min
# Sequence of CYP1A2 (P05177 whole entry): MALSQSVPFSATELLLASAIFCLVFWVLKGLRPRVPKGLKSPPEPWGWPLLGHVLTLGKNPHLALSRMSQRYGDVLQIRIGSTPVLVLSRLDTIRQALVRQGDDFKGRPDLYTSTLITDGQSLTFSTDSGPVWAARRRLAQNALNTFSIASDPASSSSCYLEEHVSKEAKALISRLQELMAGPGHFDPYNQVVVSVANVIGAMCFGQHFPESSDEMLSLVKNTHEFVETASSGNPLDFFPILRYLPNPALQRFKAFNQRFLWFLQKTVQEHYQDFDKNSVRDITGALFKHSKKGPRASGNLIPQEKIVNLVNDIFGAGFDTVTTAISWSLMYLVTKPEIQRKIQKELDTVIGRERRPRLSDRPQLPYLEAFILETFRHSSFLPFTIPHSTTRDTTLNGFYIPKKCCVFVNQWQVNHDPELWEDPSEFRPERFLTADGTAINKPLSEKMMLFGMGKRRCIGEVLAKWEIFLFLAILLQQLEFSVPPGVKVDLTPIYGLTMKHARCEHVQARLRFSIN
# Protocol: as §2, §4
# [3] = Relative solubility by turbidity threshold concentration in aqueous buffers (pH 1.5, 4.5, 6.8, 7.4); assay type: physicochemical; details: for turbidity threshold (L, M, H) 1.4: pH 1.4 [sic] (method: SGF pH 1.5); for turbidity threshold (L, M, H) 4.5: pH 4.5 (SIF); for turbidity threshold (L, M, H) 6.8: pH 6.8 (SIF); for turbidity threshold (L, M, H) 7.4: pH 7.4 (HEPES)
# In short: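 Solubility class (high >250 μM, moderate 31.3–250 μM, low <31.3 μM) comes from the concentration where absorbance reaches a 0.01 threshold, averaged across 490/535/650 nm. Samples were compound dilutions from DMSO stock, 1 μL into 99 μL buffer at pH 1.5, 4.5, 6.8 or 7.4.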
# [4] = read-out: Cyp IC50 3A4(BFC), CYP3A4, substrate BFC
# [5] = read-out: Cyp IC50 2C19, CYP2C19, substrate CEC
SMILES,IC50 (B-Raf V600E) [µM],Biochemical activity ratio V600E/C (B-Raf V600E),IC50 (c-Raf-1) [µM],IC50 (CYP2C9) [µM],IC50 (CYP3A4(BFC); [4]) [µM],IC50 (CYP2D6) [µM],Biochemical activity ratio B/V600E (B-Raf [1]),Biochemical activity ratio B/C (B-Raf [1]),IC50 (B-Raf [2]) [µM],IC50 (CYP2C19) [µM],IC50 (CYP1A2) [µM],"turbidity threshold (L, M, H) 1.4 [3]","turbidity threshold (L, M, H) 4.5 [3]","turbidity threshold (L, M, H) 6.8 [3]","turbidity threshold (L, M, H) 7.4 [3]",IC50 (CYP2C19; [5]) [µM],IC50 (CYP3A4(BFC)) [µM]
"CCNc1ncnc2[nH]cc(C(=O)c3c(F)ccc(NS(=O)(=O)c4ccc(C(F)(F)F)cc4)c3F)c12 [P-1024, N-[3-(4-Ethylamino-7H-pyrrolo[2,3-d]pyrimidine-5-carbonyl)-2,4-difluoro-phenyl]-4-trifluoromethyl-benzenesulfonamide]",> 0.1,>10,< 0.1,> 10,> 10,> 10,0.1-10,>10,< 0.1,5 to 10,> 10,M (moderate solubility if the threshold concentration is 31.3 μM to 250 μM),L (low solubility if the threshold concentration is <31.3 μM),L (low solubility if the threshold concentration is <31.3 μM),L (low solubility if the threshold concentration is <31.3 μM),–,–
"CCCS(=O)(=O)Nc1ccc(F)c(C(=O)c2c[nH]c3ncnc(Cl)c23)c1F [P-1033, Propane-1-sulfonic acid [3-(4-chloro-7H-pyrrolo[2,3-d]pyrimidine-5-carbonyl)-2,4-difluoro-phenyl]-amide]",< 0.1,0.1-10,< 0.1,> 10,> 10,> 10,0.1-10,>10,> 0.1,–,> 10,H (high solubility if the threshold concentration is >250 μm),H (high solubility if the threshold concentration is >250 μm),H (high solubility if the threshold concentration is >250 μm),H (high solubility if the threshold concentration is >250 μm),> 10,–
"CC(C)Nc1ncnc2[nH]cc(C(=O)c3c(F)ccc(NS(=O)(=O)c4ccc(C(F)(F)F)cc4)c3F)c12 [P-1039, N-[2,4-Difluoro-3-(4-isopropylamino-7H-pyrrolo[2,3-d]pyrimidine-5-carbonyl)-phenyl]-4-trifluoromethyl-benzenesulfonamide]",< 0.1,>10,< 0.1,> 10,–,> 10,0.1-10,>10,< 0.1,–,> 10,M (moderate solubility if the threshold concentration is 31.3 μM to 250 μM),M (moderate solubility if the threshold concentration is 31.3 μM to 250 μM),M (moderate solubility if the threshold concentration is 31.3 μM to 250 μM),M (moderate solubility if the threshold concentration is 31.3 μM to 250 μM),> 10,5 to 10
